Measured values published in US20250163038A1, “CBL-B MODULATORS AND USES THEREOF” (Nimbus Clio, Inc., priority 2021, published 2025).
pEC50, pIC50: −log10 of the molar value. Read-outs that look alike come from different tables or passages of the source.

Legend:
[1] = target: Recombinant human Cbl-b (aa 36-427) (Homo sapiens, UniProt Q13191); assay: Cbl-b Biochemical Assay (TR-FRET); conditions: read-out: TR-FRET hCbl-b IC50
[2] = test system: Jurkat (clone E6-1) cells with NFAT luciferase reporter; assay: Jurkat reporter assay (NFAT Luciferase); type: cell-based; conditions: Homo sapiens; for EC50: Jurkat, 6 h, read-out: Jurkat NFAT EC50 (μM); for pEC50: Jurkat NFAT luciferase reporter cells, anti-CD3 stimulation, 6 hr, read-out: Jurkat NFAT EC50
[3] = target: T1, Recombinant human c-Cbl (aa 47-435) (Homo sapiens, UniProt P22681); assay: c-Cbl Biochemical Assay (TR-FRET); conditions: hc-Cbl Biochemical Assay (TR-FRET); read-out: TR-FRET hcCbl IC50
T1 sequence (P22681 47-435): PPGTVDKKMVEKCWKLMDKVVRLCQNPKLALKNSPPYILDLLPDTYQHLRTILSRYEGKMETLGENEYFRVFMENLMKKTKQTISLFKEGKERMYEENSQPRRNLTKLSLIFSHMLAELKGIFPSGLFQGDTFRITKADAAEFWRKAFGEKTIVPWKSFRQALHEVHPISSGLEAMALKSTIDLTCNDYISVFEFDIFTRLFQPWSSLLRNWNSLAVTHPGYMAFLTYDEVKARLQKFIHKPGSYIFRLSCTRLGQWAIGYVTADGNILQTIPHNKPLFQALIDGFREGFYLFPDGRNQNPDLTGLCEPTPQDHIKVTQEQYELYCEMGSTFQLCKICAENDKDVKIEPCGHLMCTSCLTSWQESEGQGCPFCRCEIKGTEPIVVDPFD

Chain of Recombinant human Cbl-b (aa 36-427) (Q13191 36-427): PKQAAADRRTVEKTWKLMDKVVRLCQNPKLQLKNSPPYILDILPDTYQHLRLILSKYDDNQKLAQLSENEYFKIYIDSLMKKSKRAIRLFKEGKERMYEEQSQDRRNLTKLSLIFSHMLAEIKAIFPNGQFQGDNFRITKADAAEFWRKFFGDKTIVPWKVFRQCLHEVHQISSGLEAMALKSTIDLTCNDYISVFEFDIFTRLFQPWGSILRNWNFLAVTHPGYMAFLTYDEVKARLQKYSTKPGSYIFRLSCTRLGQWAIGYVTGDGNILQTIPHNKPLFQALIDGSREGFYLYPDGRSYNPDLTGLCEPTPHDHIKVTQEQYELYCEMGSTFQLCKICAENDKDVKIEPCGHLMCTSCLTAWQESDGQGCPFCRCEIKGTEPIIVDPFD

Row | Compound | pIC50 [1] | EC50 [2] [µM] | pIC50 [3] | pEC50 [2]
1 | CN(C)Cc1cc2nc(-c3cc(-c4ccc(F)cc4-c4nncn4C)cc(C4CC4)n3)oc2c(F)c1F [AHH-3, [(2-{6-cyclopropyl-4-[4-fluoro-2-(4-methyl-1,2,4-triazol-3-yl)phenyl]pyridin-2-yl}-6,7-difluoro-1,3-benzoxazol-5-yl)methyl]dimethylamine] | > 6.70 | 1 to 10 | 6.00 to 6.70 | –
2 | Cn1cnnc1-c1cc(Cl)ccc1-c1cc(-c2nc3cc(CNCC4(O)CCC4)cc(F)c3o2)nc(C2CC2)c1 [AHI-5, 1-({[(2-{4-[4-chloro-2-(4-methyl-1,2,4-triazol-3-yl)phenyl]-6-cyclopropylpyridin-2-yl}-7-fluoro-1,3-benzoxazol-5-yl)methyl]amino}methyl)cyclobutan-1-ol] | > 6.70 | – | > 6.70 | > 6.70
3 | Cc1c(F)c(CNCC2(O)CCC2)cc2nc(-c3cc(-c4ccc(F)cc4-c4nncn4C)cc(C4CC4)n3)oc12 [AHJ-1, 1-({[(2-{6-cyclopropyl-4-[4-fluoro-2-(4-methyl-1,2,4-triazol-3-yl)phenyl]pyridin-2-yl}-6-fluoro-7-methyl-1,3-benzoxazol-5-yl)methyl]amino}methyl)cyclobutan-1-ol] | > 6.70 | – | > 6.70 | > 6.70
4 | Cc1c(F)c(CNCC(C)(C)O)cc2nc(-c3cccc(-c4ccc(F)cc4-c4nncn4C)c3)oc12 [AHK-4, 1-[({6-fluoro-2-[4′-fluoro-2′-(4-methyl-1,2,4-triazol-3-yl)-[1,1′-biphenyl]-3-yl]-7-methyl-1,3-benzoxazol-5-yl}methyl)amino]-2-methylpropan-2-ol] | > 6.70 | – | > 6.70 | > 6.70
5 | Cn1cnnc1-c1cc(F)ccc1-c1cc(-c2nc3cc(C(C)(C)O)c(F)c(F)c3o2)nc(C2CC2)c1 [AHL-7, 2-(2-{6-cyclopropyl-4-[4-fluoro-2-(4-methyl-1,2,4-triazol-3-yl)phenyl]pyridin-2-yl}-6,7-difluoro-1,3-benzoxazol-5-yl)propan-2-ol] | 6.00 to 6.70 | – | 5.00 to 6.00 | 5.00 to 6.00
6 | Cn1cnnc1-c1cc(F)ccc1-c1cc(-c2nc3cc(CN)cc(F)c3o2)nc(C2CC2)c1 [AHM-3, 1-(2-{6-cyclopropyl-4-[4-fluoro-2-(4-methyl-1,2,4-triazol-3-yl)phenyl]pyridin-2-yl}-7-fluoro-1,3-benzoxazol-5-yl)methanamine] | > 6.70 | 1 to 10 | 6.00 to 6.70 | –
7 | COC(C)(C)CNCc1cc(C(F)(F)F)c2oc(-c3cccc(-c4ccc(F)cc4-c4nncn4C)c3)nc2c1 [AI-2, N-((2-(4′-Fluoro-2′-(4-methyl-4H-1,2,4-triazol-3-yl)-[1,1′-biphenyl]-3-yl)-7-(trifluoromethyl)benzo[d]oxazol-5-yl)methyl)-2-methoxy-2-methylpropan-1-amine] | > 6.70 | – | 5.00 to 6.00 | 6.00 to 6.70
8 | Cn1cnnc1-c1cc(F)ccc1-c1cccc(-c2nc3cc(CNCC4(O)CCCC4)cc(C(F)(F)F)c3o2)c1 [AK-2, 1-((((2-(4′-Fluoro-2′-(4-methyl-4H-1,2,4-triazol-3-yl)-[1,1′-biphenyl]-3-yl)-7-(trifluoromethyl)benzo[d]oxazol-5-yl)methyl)amino)methyl)cyclopentan-1-ol, Acetate] | > 6.70 | – | 5.00 to 6.00 | 6.00 to 6.70
9 | C[C@@H](O)CNCc1cc(C(F)(F)F)c2oc(-c3cccc(-c4ccc(F)cc4-c4nncn4C)c3)nc2c1 [AL-2, (R)-1-(((2-(4′-Fluoro-2′-(4-methyl-4H-1,2,4-triazol-3-yl)-[1,1′-biphenyl]-3-yl)-7-(trifluoromethyl)benzo[d]oxazol-5-yl)methyl)amino)propan-2-ol] | > 6.70 | – | 5.00 to 6.00 | 6.00 to 6.70
10 | C[C@H](O)CNCc1cc(C(F)(F)F)c2oc(-c3cccc(-c4ccc(F)cc4-c4nncn4C)c3)nc2c1 [AM-2, (S)-1-(((2-(4′-Fluoro-2′-(4-methyl-4H-1,2,4-triazol-3-yl)-[1,1′-biphenyl]-3-yl)-7-(trifluoromethyl)benzo[d]oxazol-5-yl)methyl)amino)propan-2-ol] | > 6.70 | – | 5.00 to 6.00 | 6.00 to 6.70
11 | Cn1cnnc1-c1cc(F)ccc1-c1cccc(-c2nc3cc(CNCCO)cc(C(F)(F)F)c3o2)c1 [AN-2, 2-(((2-(4′-Fluoro-2′-(4-methyl-4H-1,2,4-triazol-3-yl)-[1,1′-biphenyl]-3-yl)-7-(trifluoromethyl)benzo[d]oxazol-5-yl)methyl)amino)ethan-1-ol] | > 6.70 | – | 5.00 to 6.00 | 5.00 to 6.00
12 | Cn1cnnc1-c1cc(F)ccc1-c1cccc(-c2nc3cc(CNCC(C)(C)O)ccc3o2)c1 [AO-2, 1-(((2-(4′-Fluoro-2′-(4-methyl-4H-1,2,4-triazol-3-yl)-[1,1′-biphenyl]-3-yl)benzo[d]oxazol-5-yl)methyl)amino)-2-methylpropan-2-ol] | > 6.70 | – | 5.00 to 6.00 | 6.00 to 6.70
13 | CN(Cc1cc(C(F)(F)F)c2oc(-c3cccc(-c4ccc(F)cc4-c4nncn4C)c3)nc2c1)CC(C)(C)O [AP-2, 1-(((2-(4′-Fluoro-2′-(4-methyl-4H-1,2,4-triazol-3-yl)-[1,1′-biphenyl]-3-yl)-7-(trifluoromethyl)benzo[d]oxazol-5-yl)methyl)(methyl)amino)-2-methylpropan-2-ol] | > 6.70 | – | 5.00 to 6.00 | 6.00 to 6.70
14 | C[C@H]1CCCN(Cc2cc(C(F)(F)F)c3oc(-c4cccc(-c5ccc(C#N)cc5-c5nncn5C)c4)nc3c2)C1 [AQ-6, (S)-2-(4-Methyl-4H-1,2,4-triazol-3-yl)-3′-(5-((3-methylpiperidin-1-yl)methyl)-7-(trifluoromethyl)benzo[d]oxazol-2-yl)-[1,1′-biphenyl]-4-carbonitrile] | > 6.70 | – | 5.00 to 6.00 | 6.00 to 6.70
15 | C[C@H](Cc1nncn1C)c1cccc(-c2nc3ccc(Br)c(C(F)(F)F)c3[nH]2)c1 [AV-9, (R)-6-Bromo-2-(3-(1-(4-methyl-4H-1,2,4-triazol-3-yl)propan-2-yl)phenyl)-7-(trifluoromethyl)-1H-benzo[d]imidazole] | 6.00 to 6.70 | – | 4.30 to 5.00 | 5.00 to 6.00
16 | Cn1cnnc1-c1cc(F)ccc1-c1cccc(-c2nc3cc(CO)cc(C(F)(F)F)c3[nH]2)c1 [BJ-1, (2-(4′-Fluoro-2′-(4-methyl-4H-1,2,4-triazol-3-yl)-[1,1′-biphenyl]-3-yl)-7-(trifluoromethyl)-1H-benzo[d]imidazol-5-yl)methanol] | > 6.70 | – | 5.00 to 6.00 | 5.00 to 6.00
17 | Cn1cnnc1-c1cc(F)ccc1-c1cccc(-c2nc3cc(CN[C@@H]4CCC[C@H]4O)cc(C(F)(F)F)c3[nH]2)c1 [BK-2, (1R,2R)-2-(((2-(4′-Fluoro-2′-(4-methyl-4H-1,2,4-triazol-3-yl)-[1,1′-biphenyl]-3-yl)-7-(trifluoromethyl)-1H-benzo[d]imidazol-5-yl)methyl)amino)cyclopentan-1-ol] | > 6.70 | – | 5.00 to 6.00 | 5.00 to 6.00
18 | C[C@@H]1CN(Cc2cc(C(F)(F)F)c3[nH]c(-c4cccc(-c5ccc(F)cc5-c5nncn5C)c4)nc3c2)CCO1 [BL-2, (R)-4-((2-(4′-Fluoro-2′-(4-methyl-4H-1,2,4-triazol-3-yl)-[1,1′-biphenyl]-3-yl)-7-(trifluoromethyl)-1H-benzo[d]imidazol-5-yl)methyl)-2-methylmorpholine] | > 6.70 | – | 5.00 to 6.00 | 5.00 to 6.00
19 | Cn1cnnc1-c1cc(F)ccc1-c1cccc(-c2nc3cc(CN[C@@H]4CCC[C@@H]4O)cc(C(F)(F)F)c3[nH]2)c1 [BM-2, (1S,2R)-2-(((2-(4′-Fluoro-2′-(4-methyl-4H-1,2,4-triazol-3-yl)-[1,1′-biphenyl]-3-yl)-7-(trifluoromethyl)-1H-benzo[d]imidazol-5-yl)methyl)amino)cyclopentan-1-ol] | > 6.70 | – | 5.00 to 6.00 | 6.00 to 6.70
20 | Cn1cnnc1-c1cc(F)ccc1-c1cccc(-c2nc3cc(CN[C@H]4CCC[C@@H]4O)cc(C(F)(F)F)c3[nH]2)c1 [BN-2, (1S,2S)-2-(((2-(4′-Fluoro-2′-(4-methyl-4H-1,2,4-triazol-3-yl)-[1,1′-biphenyl]-3-yl)-7-(trifluoromethyl)-1H-benzo[d]imidazol-5-yl)methyl)amino)cyclopentan-1-ol] | > 6.70 | – | 5.00 to 6.00 | 6.00 to 6.70
21 | C[C@H]1CCCN(Cc2cc(C(F)(F)F)c3[nH]c(-c4cccc(-c5ccc(F)cc5-c5nncn5C)c4)nc3c2)C1 [BO-2, (S)-2-(4′-Fluoro-2′-(4-methyl-4H-1,2,4-triazol-3-yl)-[1,1′-biphenyl]-3-yl)-5-((3-methylpiperidin-1-yl)methyl)-7-(trifluoromethyl)-1H-benzo[d]imidazole] | > 6.70 | – | 5.00 to 6.00 | 6.00 to 6.70
22 | Cn1cnnc1-c1cc(F)ccc1-c1cccc(-c2nc3cc(CNCC4(O)CCC4)cc(C(F)(F)F)c3[nH]2)c1 [BP-1, 1-((((2-(4′-Fluoro-2′-(4-methyl-4H-1,2,4-triazol-3-yl)-[1,1′-biphenyl]-3-yl)-7-(trifluoromethyl)-1H-benzo[d]imidazol-5-yl)methyl)amino)methyl)cyclobutan-1-ol] | > 6.70 | – | 5.00 to 6.00 | 6.00 to 6.70
